# Patent publication US4386093A (The United States of America as represented by the …, priority 1981, dated 1983)
# Read-outs that look alike come from different tables or passages of the source.
# Assays:
# [1] = tested on: calf intestinal deaminase; assay: Deamination by calf intestinal deaminase; assay type: biochemical
# [2] = tested on: adenosine kinase; assay: Phosphorylation by adenosine kinase; assay type: biochemical
# [3] = tested on: herpes simplex type I; assay: Herpes I plaque formation in mouse L cells; assay type: cell-based; conditions: 72 h, day 3
# [4] = Cell number in herpes I plaque assay; assay type: cell-based; conditions: mouse L cells
# [5] = tested on: HL-23 C type virus; assay: HL-23 virus production in NRKB/HL23 cells; assay type: cell-based; conditions: HL2/3, 72 h
# Description: on day 3; virus production by HL23 was measured with NRKB/HL23 cells on
# day 3; oncogenic transformation by HL23 was assayed by infecting normal
# [6] = Cell number in HL-23 virus production assay; assay type: cell-based; conditions: rat, nrkb/hl23 cells, read-out: % Control Cell Number
# [7] = tested on: HL-23 C type virus; assay: HL-23 foci formation (oncogenic transformation) in normal rat kidney cells; assay type: cell-based; conditions: NRK 153 Cl 7 cells, day 5
# [8] = Cell number in HL-23 foci formation assay; assay type: cell-based; conditions: rat, nrk 153 cl 7 cells, read-out: % Control Cell Number
# [9] = tested on: vaccinia virus; assay: microbe, parasite or virus in culture; assay type: cell-based
# [10] = tested on: poliovirus; assay type: cell-based
# [11] = tested on: S-adenosylhomocysteine hydrolase
# [12] = 1 μM; vaccinia assay
# [13] = tested on: neutrophilis or macrophage cell lines
# [14] = in vitro; conditions: vaccinia assay host cells
# [15] = listed as (±)3-Deazaaristeromycin
# [16] = read-out: Ki, S-adenosylhomocysteine hydrolase
structure (smiles),measurement,setting,value
"Nc1nccc2c1ncn2[C@@H]1C[C@H](CO)[C@@H](O)[C@H]1O (relative stereo) [(±)3-deazaaristeromycin, (±)-4-amino-1-[(1α, 2β, 3β, 4α)-2,3-dihydroxy-4-(hydroxymethyl)-cyclopentyl]imidazo[4,5-c]pyridine]",Deamination,[1]; listed as 3-Deaza-Ari,not deaminated
same,Deamination,[1]; [15],not subject to deamination or phosphorylation
same,Phosphorylation,[2]; listed as 3-Deaza-Ari,not phosphorylated
same,Phosphorylation,[2]; [15],not subject to deamination or phosphorylation
same,inhibition at 10 µM,[3]; 10 uM,60%
same,inhibition at 20 µM,[3]; 20 uM,97%
same,inhibition at 30 µM,[3]; 30 uM,> 99%
same,inhibition at 40 µM,[3]; 40 uM,99.3%
same,inhibition at 50 µM,[3]; 50 uM,99.3%
same,inhibition at 60 µM,[3]; 60 uM,100%
same,inhibition at 70 µM,[3]; 70 uM,100%
same,"activity at 72 h, 10 µM","[4]; 10 uM, read-out: % Control Cell Number",100%
same,"activity at 72 h, 20 µM","[4]; 20 uM, read-out: % Control Cell Number",95%
same,"activity at 72 h, 30 µM","[4]; 30 uM, read-out: % Control Cell Number",95%
same,"activity at 72 h, 40 µM","[4]; 40 uM, read-out: % Control Cell Number",91%
same,"activity at 72 h, 50 µM","[4]; 50 uM, read-out: % Control Cell Number",95%
same,"activity at 72 h, 60 µM","[4]; 60 uM, read-out: % Control Cell Number",91%
same,"activity at 72 h, 70 µM","[4]; 70 uM, read-out: % Control Cell Number",82%
same,cytotoxicity,"[4]; 20-30 μM, read-out: Reduction in the cell number (cytotoxicity)",≤ 5%
same,inhibition at 0.25 µM,"[5]; 0.25 uM, day 3",68%
same,inhibition at 1 µM,"[5]; 1.00 uM, day 3",86%
same,inhibition at 0.5 µM,"[5]; read-out: % Inhibition, HL-23 virus production, 0.50 uM, day 3",> 85%
same,"activity at 72 h, 0.25 µM",[6]; 0.25 uM,100%
same,"activity at 72 h, 0.5 µM",[6]; 0.50 uM,88%
same,"activity at 72 h, 1 µM",[6]; 1.00 uM,75%
same,"% Inhibition, HL-23 foci formation","[7]; 2.00 uM, 2 µM",92%
same,inhibition at 0.25 µM,"[7]; HL2/3, 120 h, 0.25 uM",44%
same,inhibition at 0.5 µM,"[7]; HL2/3, 120 h, 0.50 uM",44%
same,inhibition at 1 µM,"[7]; HL2/3, 120 h, 1.00 uM",76%
same,inhibition at 2 µM,"[7]; HL2/3, 120 h, 2.00 uM",~96%
same,inhibition at 4 µM,"[7]; HL2/3, 120 h, 4.00 uM",99%
same,"activity at 120 h, 0.25 µM",[8]; 0.25 uM,100%
same,"activity at 120 h, 0.5 µM",[8]; 0.50 uM,96%
same,"activity at 120 h, 1 µM",[8]; 1.00 uM,81%
same,"activity at 120 h, 2 µM",[8]; 2.00 uM,71%
same,"activity at 120 h, 4 µM",[8]; 4.00 uM,53%
same,"% Inhibition, Vaccinia plaque formation",[9]; 1.0 uM,99.2%
same,inhibition at 0.5 µM,"[9]; Orthopoxvirus vaccinia, read-out: % Inhibition, Vaccinia plaque formation, 0.5 uM",84%
same,inhibition at 1 µM,"[9]; Orthopoxvirus vaccinia, read-out: % Inhibition, Vaccinia plaque formation, 1.0 uM",> 99%
same,inhibition at 2 µM,"[9]; Orthopoxvirus vaccinia, read-out: % Inhibition, Vaccinia plaque formation, 2.0 uM",99.6%
same,inhibition at 4 µM,"[9]; Orthopoxvirus vaccinia, read-out: % Inhibition, Vaccinia plaque formation, 4.0 uM",99.8%
same,Inhibition of replication of poliovirus,[10],fail to inhibit
same,Irreversible inhibition of the enzyme,[11],negligible or very little irreversible inhibition
same,Ki,"[11]; read-out: Ki, AdoHcy hydrolase",3 µM
same,Ki,[11]; [16],3 µM
same,cytotoxicity,[12],without any cytotoxicity
same,Inhibition of chemotaxis,[13],does not inhibit
same,activity at 0.5 µM,[14],120%
same,activity at 1 µM,[14],144%
same,activity at 2 µM,[14],111%
same,activity at 4 µM,[14],111%
"Nc1ncnc2c1ncn2[C@@H]1C[C@H](CO)[C@@H](O)[C@H]1O (relative stereo) [(±)aristeromycin, reference compound]",Ki,[11]; [16],0.001 µM
"Nc1nccc2c1ncn2[C@@H]1O[C@H](CO)[C@@H](O)[C@H]1O [3-deazaadenosine, reference compound]",Inhibition of replication of poliovirus,[10],fail to inhibit
